The test system of one series is T1, UrdPase.
T1 construct: The supernatant fluids (cytosol) were collected and used as an enzyme source
In words: Inhibition of uridine phosphorylase in mouse liver cytosol (apparent Ki, Dixon plots). Format: biochemical. Particulars: for Ki: enzyme from mouse liver cytosol, uridine 1 mM, ± S.D. How it is done: (§1) Mouse livers were obtained from female Swiss Albino (CD1) mice weighing 20-24 g (Charles River Laboratories, Boston, Mass.). Mice were sacrificed by cervical dislocation and the livers removed, weighed, minced, and homogenized in ice-cold (3:1, v/w) buffer [20 mM potassium phosphate. pH 8.0; 1 mM dithiothreitol (DTT), 1 mM EDTA] using a Polytron homogenizer (Brinkman Instruments, Westbury, N.J.). The homogenates were centrifuged at 105,000×g for 1 h. at 4° C. The supernatant fluids (cytosol) were collected and used as an enzyme source.
(§2) All assays described below were conducted at 37° C. under conditions where enzyme activity was linear with respect to time and enzyme concentration. For each inhibitor, 5 concentrations were used ranging from […]. Reactions were started by the addition of extract and stopped by boiling in a water bath for 2 minutes followed by freezing, Precipitated proteins were removed by centrifugation. Substrates were separated from products in the supematant by TLC and the radioactivity in the spots was determined on a percentage basis using a Berthold LB-2821 Automatic TLC-Linear Analyzer.
Nucleoside cleavage was measured isotopically by following the formation of nucleobases from their respective nucleosides as previously described. […] The incubation was terminated after 30 min. Uridine and thymidine were separated from their respective nucleobases on silica gel TLC plates developed with CHCl3:MEOH:AcOH (90:5:5, v/v/v). The Rf values were uridine, 0.07; uracil, 0.43; thymidine, 0.14; and thymine, 0.62.
Determination and significance of apparent Ki values was pertbrined using uridine (1 mM) and 5 different concentrations of the inhibitor ranging from […]. Apparent Ki values were estimated from Dixon's plots (1/v vs. [I]) of the data by a computer program with least squares fitting. Apparent Ki, values are related to Ki values by the following equation:
Apparent Ki=Kis(1+[S]/Km)/1+([S]/Km) (Kis/Kii)
where Kis and Kii are inhibition constants that would have been estimated from the replot of slope and intercept, respectively, of a Lineweaver-Burk plots vs. [I]. If a compound is a competitive inhibitor with respect to uridine, Kii=∝ and Kis=Ki. Therefore, the apparent .Ki=Ki(1+[S]1 Km). […] It should be noted, however, that we have not characterized the compounds used in this study with regard to the type of inhibition (competitive, noncompetitive, or uncompetitive) or whether they are substrates for the enzyme.

The nature of series [1]: Pharmacokinetics of PSAU in CD-1 mice. The class given is in vivo. The settings on record: female CD-1 mice; for Cmax / half-life / MRT: mouse, ip, plasma; for Cmax: read-out: Cmax, peak plasma concentration; for half-life: read-out: Apt½, elimination half-life (converted); for MRT: read-out: MRT, mean residence time. How it is done: PSAU was injected i.p. into female CD-1 mice. At various time intervals, 250 μl of whole blood were collected from the orbital sinuses from three mice by a heparinized Natelson pipet and placed on ice. The whole blood was then centrifuged for 5 minutes to separate the plasma which was kept in a -20° C. freezer until preparation for analysis by the HPLC. The pharmacokinetic parameters were estimated by compartmental model-independent methods using a […]/Base program. The AUC was determined by the trapezoidal rule with extrapolation to time infinity using the terminal disposition slope (K) generated by a weighted nonlinear least-squares regression of an exponential fit of the data, with the weighted square factor set as the reciprocal of the calculated concentration squared. Elimination half-life of uridine was calculated from 0.693/K The total plasma clearance (C1) was calculated by dividing the dose by the AUC and the weight of the mouse. The peak plasma concentration (Cmax) values and time to peak plasma concentration (Tmax) values were observed experimental values. Renal clearance (CLR) of uridine was calculated by dividing the […] by the AUC.

Another series addresses T2, DHUDase (Mus musculus, UniProt Q8CHR6).
T2 construct: The supernatant fluids (cytosol) were collected and used as an enzyme source; from tissue; host or cells: mouse liver cytosol (female Swiss Albino CD1 mice)
T2 sequence (Q8CHR6 1-1025): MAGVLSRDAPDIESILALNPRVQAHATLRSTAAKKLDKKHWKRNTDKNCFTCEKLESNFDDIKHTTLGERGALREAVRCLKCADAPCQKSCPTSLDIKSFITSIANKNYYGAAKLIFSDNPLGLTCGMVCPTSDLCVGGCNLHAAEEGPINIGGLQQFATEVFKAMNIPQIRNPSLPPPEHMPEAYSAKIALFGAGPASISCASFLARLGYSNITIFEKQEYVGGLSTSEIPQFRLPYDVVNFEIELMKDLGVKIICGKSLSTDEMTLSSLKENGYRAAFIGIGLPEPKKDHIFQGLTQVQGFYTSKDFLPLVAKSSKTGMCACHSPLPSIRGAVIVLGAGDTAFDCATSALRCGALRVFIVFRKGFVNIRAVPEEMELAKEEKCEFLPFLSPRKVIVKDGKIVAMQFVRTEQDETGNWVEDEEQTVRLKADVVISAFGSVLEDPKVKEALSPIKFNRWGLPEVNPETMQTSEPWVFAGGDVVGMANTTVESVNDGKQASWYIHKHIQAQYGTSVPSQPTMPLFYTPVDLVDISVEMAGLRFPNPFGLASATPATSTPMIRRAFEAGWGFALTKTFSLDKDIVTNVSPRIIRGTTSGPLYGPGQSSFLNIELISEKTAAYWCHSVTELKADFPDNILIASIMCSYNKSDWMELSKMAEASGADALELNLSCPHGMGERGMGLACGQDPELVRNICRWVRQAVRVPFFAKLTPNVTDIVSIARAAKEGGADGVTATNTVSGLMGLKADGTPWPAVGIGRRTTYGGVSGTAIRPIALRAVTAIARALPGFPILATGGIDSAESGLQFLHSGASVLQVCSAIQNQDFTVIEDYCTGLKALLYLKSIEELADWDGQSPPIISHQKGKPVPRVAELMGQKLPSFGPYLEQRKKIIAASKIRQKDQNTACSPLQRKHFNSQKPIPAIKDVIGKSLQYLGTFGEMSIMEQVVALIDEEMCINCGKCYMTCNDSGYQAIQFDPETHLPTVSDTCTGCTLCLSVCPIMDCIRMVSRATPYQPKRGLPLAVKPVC
The series can be described thus: Inhibition of dihydrouracil dehydrogenase in mouse liver cytosol (apparent Ki). The class given is biochemical. The settings on record: enzyme from mouse liver cytosol; 25 μM uracil; ± S.D. The protocol:
as §1, §2
The activity of the enzyme was measured by following the formation of dihydrouracil, carbamyl-β-alanine, and β-alanine from [6 -^14C]uracil as previously described. […] DHUDase activity was determined as the sum of the products dihydrouracil, carbamyl-β-alanine, and β-alanine. […]

Read-outs that look alike come from different tables or passages of the source.

Broadly, the Km is the substrate concentration at which the rate is half of its maximum. By half-life is commonly meant how long it takes for the measured level to halve. As a reminder, the MRT is the average time that molecules of a dose stay in the body. The melting point is the temperature of the solid-liquid transition.

With `O=c1ccn([C@@H]2O[C@H](CO)[C@@H](O)[C@H]2O)c(=O)[nH]1` [uridine], the Km in the series on UrdPase (UrdPase from mouse liver, substrate) came out at 66 µM.
Take `O=c1cc([Se]c2ccccc2)n(COCCO)c(=O)[nH]1` [6-(Phenylselenenyl)acyclouridine, 1-[(2-hydroxyethoxy)methyl]-6-(phenylselenenyl)uridine]: at UrdPase, the Ki came out at 19.3 ± 1.5 µM.
As for `O=c1[nH]c(=O)n(COCCO)c([Se]c2ccccc2)c1F` [6-(Phenylselenenyl)acyclo-5-FUrd], on UrdPase, the Ki is 35 ± 5.6 µM.
Still for that read-out and setting: to `O=c1[nH]c(=O)n([C@H]2C[C@H](O)[C@@H](CO)O2)cc1[Se]c1ccccc1` [5-(Phenylselenenyl)-2′-deoxyuridine, 5-(phenylselenenyl)-2′-deoxyuridine] belongs 5.5 ± 0.6 µM.
Consider `O=c1[nH]c(=O)n(COCCO)cc1[Se]c1ccccc1` [PSAU, 1-[(2-Hydroxyethoxy)methyl]-5-(phenylselenenyl)uracil], for which the Ki at UrdPase was determined as 3.8 ± 0.8 µM. Moreover, in series [1] (PSAU 30 mg/kg i.p.), the “ApVd, volume of distribution” value worked out at 0.331 L/kg; the Cmax was found to be 100 µM; the half-life is 0.7 h; the MRT was 1.28 h. In addition, in series [1] (PSAU 60 mg/kg i.p.), the “ApVd, volume of distribution” value was determined as 0.356 L/kg; the Cmax came to 210 µM; the half-life was 1.4 h; the MRT was 2.27 h.
In the case of `O=c1[nH]c(=O)n(COCCO)cc1Cc1ccccc1` [5-Benzylacyclouridine (BAU), 5-Benzylacyclouridine, reference compound], the Ki on UrdPase came to 3.1 ± 0.22 µM.
Compound `CCOCn1cc([Se]c2ccccc2)c(=O)[nH]c1=O` [1-Ethoxymethyl-5-phenylselenenyluracil, 1-(Ethoxymethyl)-5-(phenylselenenyl)uracil] displayed a melting point of 143 to 145 °C. In addition, the Ki on UrdPase came to 313 ± 32 µM.
For `O=c1[nH]cc(Sc2ccccc2)c(=O)[nH]1` [5-Phenylthiouracil (PTU), 5-(Phenylthio)uracil], the Ki at UrdPase was 744 ± 85 µM; on DHUDase, 5.4 ± 0.6 µM.
Consider `O=c1[nH]cc([Se]c2ccccc2)c(=O)[nH]1` [5-Phenylselenenyluracil (PSU), 5-Phenylselenenyluracil], for which the melting point fell in the range of 249 to 251 °C. Besides, at UrdPase, the Ki is 205 ± 35 µM. Further, the Ki on DHUDase worked out at 4.8 ± 0.6 µM.
As to `O=c1[nH]c(=O)n([C@@H]2O[C@H](CO)[C@@H](O)[C@H]2O)cc1[Se]c1ccccc1` [5-(Phenylselenenyl)uridine, 5-(phenylselenenyl)uridine], the Ki on UrdPase came to 4 ± 0.2 µM.

These data come from USRE37623E1, “Enzyme inhibitors, their synthesis, and methods for use” (priority 1993, dated 2002).
